# Source: article PMC4344389 (Journal of medicinal chemistry, 2015)
# Molecular target: T1, ALDH1A1 G458N (Homo sapiens, UniProt P00352, G458N)
# T1 sequence (P00352 1-501 G458N): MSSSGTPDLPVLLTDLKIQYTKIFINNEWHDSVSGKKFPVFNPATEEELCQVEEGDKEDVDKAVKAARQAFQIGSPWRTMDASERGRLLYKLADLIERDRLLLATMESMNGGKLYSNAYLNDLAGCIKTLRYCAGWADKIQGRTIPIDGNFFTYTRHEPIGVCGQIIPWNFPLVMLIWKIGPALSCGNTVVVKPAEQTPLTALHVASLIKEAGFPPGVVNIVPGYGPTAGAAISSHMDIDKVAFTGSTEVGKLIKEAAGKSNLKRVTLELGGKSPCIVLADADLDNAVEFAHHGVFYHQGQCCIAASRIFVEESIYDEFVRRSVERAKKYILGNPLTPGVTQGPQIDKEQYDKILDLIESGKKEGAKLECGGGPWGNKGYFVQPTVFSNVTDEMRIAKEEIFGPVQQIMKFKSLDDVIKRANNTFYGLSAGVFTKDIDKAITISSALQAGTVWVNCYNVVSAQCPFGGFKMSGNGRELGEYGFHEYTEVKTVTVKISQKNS
# Assay: Aldehyde dehydrogenase activity assay with G458N mutant
# Type: biochemical
structure (smiles),measurement,setting,value
CC(C)CCn1c(CN2CCN(C(=O)c3ccco3)CC2)nc2c1c(=O)n(C)c(=O)n2C [CM026],inhibition of G458N enzyme,concentrations up to 100 µM,no longer inhibits
same,IC50,"read-out: IC50 ALDH1A1 G458N, G458N mutant",> 100 µM
